Laboratory results: ChEMBL document CHEMBL1201862, “PubChem BioAssay data set” (2004)
The source made the active and inactive calls.

Legend:
Format in all cases: functional
[1] = target: Protein kinase C theta type (Homo sapiens, UniProt Q04759); assay: Navigating the Kinome. Panel member name: PRKCQ
[2] = target: Tyrosine-protein kinase JAK2 (Homo sapiens, UniProt O60674);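 note: JAK2 tested as one member of a kinase panel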
[3] = target: ALK tyrosine kinase receptor (Homo sapiens, UniProt Q9UM73);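 note: ALK tested as one member of a kinase panel screen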
[4] = target: Proto-oncogene tyrosine-protein kinase receptor Ret (Homo sapiens, UniProt P07949);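 note: measured within a kinome-wide profiling panel, RET as the panel member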
[5] = target: Tyrosine-protein kinase SYK (Homo sapiens, UniProt P43405)
[6] = target: T1, Serine/threonine-protein kinase D3 (Homo sapiens, UniProt O94806);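 note: determined within a kinase panel screen, with PRKCN as the panel member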
T1 sequence (O94806 whole entry): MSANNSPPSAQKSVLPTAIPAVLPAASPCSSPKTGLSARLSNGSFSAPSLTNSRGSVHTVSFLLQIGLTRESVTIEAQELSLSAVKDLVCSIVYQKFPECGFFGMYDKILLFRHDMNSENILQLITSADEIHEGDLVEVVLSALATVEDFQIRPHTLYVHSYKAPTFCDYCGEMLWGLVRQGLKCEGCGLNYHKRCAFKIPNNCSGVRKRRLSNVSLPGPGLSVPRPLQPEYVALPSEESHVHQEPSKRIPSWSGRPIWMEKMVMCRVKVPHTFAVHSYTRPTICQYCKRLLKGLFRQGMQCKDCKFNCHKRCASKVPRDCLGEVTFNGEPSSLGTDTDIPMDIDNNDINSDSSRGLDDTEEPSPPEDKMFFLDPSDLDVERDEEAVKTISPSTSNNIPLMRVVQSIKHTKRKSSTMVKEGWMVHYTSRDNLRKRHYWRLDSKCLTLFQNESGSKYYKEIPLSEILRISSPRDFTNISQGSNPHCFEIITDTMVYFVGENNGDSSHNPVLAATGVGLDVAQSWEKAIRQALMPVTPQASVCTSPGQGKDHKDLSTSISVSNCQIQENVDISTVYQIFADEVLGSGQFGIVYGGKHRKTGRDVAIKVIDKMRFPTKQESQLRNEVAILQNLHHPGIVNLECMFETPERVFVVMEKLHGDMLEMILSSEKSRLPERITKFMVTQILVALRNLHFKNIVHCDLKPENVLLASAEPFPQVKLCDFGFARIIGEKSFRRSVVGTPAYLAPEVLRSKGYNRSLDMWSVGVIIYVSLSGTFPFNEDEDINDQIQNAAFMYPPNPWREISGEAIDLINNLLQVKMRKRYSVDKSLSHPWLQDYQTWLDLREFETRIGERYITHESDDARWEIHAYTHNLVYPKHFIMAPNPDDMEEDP

Activin receptor type-1 = Activin receptor type-1 (Homo sapiens, UniProt Q04771); assay: Navigating the Kinome. Panel member name: ACVR1
[7] = target: Casein kinase I isoform alpha (Homo sapiens, UniProt P48729)
[8] = target: Mitogen-activated protein kinase 9 (Homo sapiens, UniProt P45984);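 note: value from a kinome panel profiling assay, MAPK9 panel entry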
[9] = target: Homeodomain-interacting protein kinase 2 (Homo sapiens, UniProt Q9H2X6);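 note: measured within a kinome-wide kinase profiling panel, HIPK2 being one panel member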
[10] = target: High affinity nerve growth factor receptor (Homo sapiens, UniProt P04629);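 note: NTRK1 tested as one member of a kinome-wide profiling panel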
[11] = target: Receptor-type tyrosine-protein kinase FLT3 (Homo sapiens, UniProt P36888);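 note: FLT3 was tested as one member of a kinome-wide kinase panel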
[12] = target: T2, Serine/threonine-protein kinase Chk1 (Homo sapiens, UniProt O14757);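 note: measured as one member of a kinome-wide kinase profiling panel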
T2 sequence (O14757 whole entry): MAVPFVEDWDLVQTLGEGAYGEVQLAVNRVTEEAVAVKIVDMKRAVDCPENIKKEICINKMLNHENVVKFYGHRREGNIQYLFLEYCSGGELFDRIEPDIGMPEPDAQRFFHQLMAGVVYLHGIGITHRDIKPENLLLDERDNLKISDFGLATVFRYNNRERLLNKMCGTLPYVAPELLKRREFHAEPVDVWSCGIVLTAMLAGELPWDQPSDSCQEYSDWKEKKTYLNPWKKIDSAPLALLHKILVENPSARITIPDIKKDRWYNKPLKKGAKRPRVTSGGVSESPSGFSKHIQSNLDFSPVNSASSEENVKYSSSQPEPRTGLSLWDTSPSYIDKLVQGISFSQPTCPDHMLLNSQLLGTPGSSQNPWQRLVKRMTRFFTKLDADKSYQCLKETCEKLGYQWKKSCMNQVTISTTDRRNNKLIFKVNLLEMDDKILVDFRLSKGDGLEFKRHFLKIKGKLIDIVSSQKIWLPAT

[13] = target: Tyrosine-protein kinase ABL1 (Homo sapiens, UniProt P00519)
Aurora kinase B = Aurora kinase B (Homo sapiens, UniProt Q96GD4)
[14] = target: Mitogen-activated protein kinase kinase kinase kinase 5 (Homo sapiens, UniProt Q9Y4K4);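 note: measured as one member of a kinome-spanning kinase panel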
[15] = target: Tyrosine-protein kinase Fyn (Homo sapiens, UniProt P06241)
[16] = target: Serine/threonine-protein kinase Nek2 (Homo sapiens, UniProt P51955)
[17] = target: Cyclin-dependent kinase 8 (Homo sapiens, UniProt P49336); assay: Navigating the Kinome. Panel member name: CDK8
[18] = target: Cyclin-dependent kinase 7 (Homo sapiens, UniProt P50613);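 note: value comes from a kinome-wide kinase profiling panel in which CDK7 is one member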
[19] = target: Vascular endothelial growth factor receptor 1 (Homo sapiens, UniProt P17948);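 note: measured within a kinome-wide profiling panel, FLT1 as the panel member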
[20] = target: Cyclin-dependent kinase 9 (Homo sapiens, UniProt P50750);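 note: value from the CDK9 entry of a kinome-spanning kinase panel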
[21] = target: Macrophage-stimulating protein receptor (Homo sapiens, UniProt Q04912); assay: Navigating the Kinome. Panel member name: MST1R
[22] = target: Dual specificity mitogen-activated protein kinase kinase 2 (Homo sapiens, UniProt P36507); assay: Navigating the Kinome. Panel member name: MAP2K2
[23] = target: Inhibitor of nuclear factor kappa-B kinase subunit epsilon (Homo sapiens, UniProt Q14164); assay: Navigating the Kinome. Panel member name: IKBKE
[24] = target: Calcium/calmodulin-dependent protein kinase type II subunit alpha (Homo sapiens, UniProt Q9UQM7); assay: Navigating the Kinome. Panel member name: CAMK2A
[25] = target: Serine/threonine-protein kinase 3 (Homo sapiens, UniProt Q13188);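 note: measured as one member of a kinome-wide kinase panel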
[26] = target: Tyrosine-protein kinase Lck (Homo sapiens, UniProt P06239);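 note: lck was assayed as one member of a kinase panel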
Chain of Tyrosine-protein kinase Lck (P06239 whole entry): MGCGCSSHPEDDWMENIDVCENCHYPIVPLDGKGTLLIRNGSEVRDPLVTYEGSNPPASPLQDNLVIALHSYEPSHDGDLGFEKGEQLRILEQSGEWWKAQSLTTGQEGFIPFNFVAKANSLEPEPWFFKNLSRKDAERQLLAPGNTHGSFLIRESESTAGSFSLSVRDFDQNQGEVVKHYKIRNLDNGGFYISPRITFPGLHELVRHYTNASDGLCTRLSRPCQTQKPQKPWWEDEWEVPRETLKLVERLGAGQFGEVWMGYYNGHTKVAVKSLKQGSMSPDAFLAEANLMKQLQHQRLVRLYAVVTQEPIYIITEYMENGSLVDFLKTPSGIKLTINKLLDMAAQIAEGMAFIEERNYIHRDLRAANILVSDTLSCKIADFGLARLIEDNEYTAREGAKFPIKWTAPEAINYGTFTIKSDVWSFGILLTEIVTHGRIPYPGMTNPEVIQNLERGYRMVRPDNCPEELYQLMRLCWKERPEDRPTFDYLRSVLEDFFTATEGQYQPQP

Chain of ALK tyrosine kinase receptor (Q9UM73 whole entry): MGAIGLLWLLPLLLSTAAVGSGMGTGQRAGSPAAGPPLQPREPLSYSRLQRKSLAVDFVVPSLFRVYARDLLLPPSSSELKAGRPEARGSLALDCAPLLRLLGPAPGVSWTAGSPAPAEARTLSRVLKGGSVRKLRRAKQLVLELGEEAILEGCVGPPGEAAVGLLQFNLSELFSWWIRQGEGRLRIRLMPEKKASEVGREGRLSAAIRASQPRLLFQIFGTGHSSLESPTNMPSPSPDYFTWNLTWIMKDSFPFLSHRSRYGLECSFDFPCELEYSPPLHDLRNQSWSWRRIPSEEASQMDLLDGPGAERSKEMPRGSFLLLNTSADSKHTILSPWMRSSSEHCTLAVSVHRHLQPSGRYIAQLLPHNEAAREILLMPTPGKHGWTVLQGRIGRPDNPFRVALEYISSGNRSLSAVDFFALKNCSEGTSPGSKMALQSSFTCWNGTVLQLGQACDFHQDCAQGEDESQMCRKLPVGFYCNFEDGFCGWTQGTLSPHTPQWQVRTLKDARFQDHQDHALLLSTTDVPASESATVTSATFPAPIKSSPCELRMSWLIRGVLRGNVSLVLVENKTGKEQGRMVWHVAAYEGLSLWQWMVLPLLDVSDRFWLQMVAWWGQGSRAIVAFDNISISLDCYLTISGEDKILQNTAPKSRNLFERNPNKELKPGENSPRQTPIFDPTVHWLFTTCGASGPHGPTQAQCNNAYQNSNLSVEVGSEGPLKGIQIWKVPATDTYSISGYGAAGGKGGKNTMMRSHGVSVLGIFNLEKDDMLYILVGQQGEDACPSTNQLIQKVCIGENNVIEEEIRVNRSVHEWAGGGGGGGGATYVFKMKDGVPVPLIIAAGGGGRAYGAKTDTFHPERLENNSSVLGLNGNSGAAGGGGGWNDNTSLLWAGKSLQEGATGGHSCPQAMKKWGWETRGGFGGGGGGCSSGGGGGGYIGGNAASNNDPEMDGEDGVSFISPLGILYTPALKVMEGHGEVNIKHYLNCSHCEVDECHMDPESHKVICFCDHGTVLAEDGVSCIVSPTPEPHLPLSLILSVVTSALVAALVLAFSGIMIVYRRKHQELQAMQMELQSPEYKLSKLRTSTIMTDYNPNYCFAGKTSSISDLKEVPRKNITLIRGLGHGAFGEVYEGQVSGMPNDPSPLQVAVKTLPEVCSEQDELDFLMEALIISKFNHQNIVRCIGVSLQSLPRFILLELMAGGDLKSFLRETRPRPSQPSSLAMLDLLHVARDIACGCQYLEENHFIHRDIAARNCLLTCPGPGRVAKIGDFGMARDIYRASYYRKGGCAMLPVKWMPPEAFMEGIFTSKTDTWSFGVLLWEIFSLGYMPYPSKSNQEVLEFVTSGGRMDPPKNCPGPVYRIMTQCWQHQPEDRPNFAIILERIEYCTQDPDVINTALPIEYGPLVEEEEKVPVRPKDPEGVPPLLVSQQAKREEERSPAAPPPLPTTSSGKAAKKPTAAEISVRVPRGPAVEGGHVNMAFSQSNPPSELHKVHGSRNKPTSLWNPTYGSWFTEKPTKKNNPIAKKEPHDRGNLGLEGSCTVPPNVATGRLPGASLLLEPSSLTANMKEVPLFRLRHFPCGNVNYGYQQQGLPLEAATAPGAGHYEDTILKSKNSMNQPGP
Chain of Cyclin-dependent kinase 8 (P49336 whole entry): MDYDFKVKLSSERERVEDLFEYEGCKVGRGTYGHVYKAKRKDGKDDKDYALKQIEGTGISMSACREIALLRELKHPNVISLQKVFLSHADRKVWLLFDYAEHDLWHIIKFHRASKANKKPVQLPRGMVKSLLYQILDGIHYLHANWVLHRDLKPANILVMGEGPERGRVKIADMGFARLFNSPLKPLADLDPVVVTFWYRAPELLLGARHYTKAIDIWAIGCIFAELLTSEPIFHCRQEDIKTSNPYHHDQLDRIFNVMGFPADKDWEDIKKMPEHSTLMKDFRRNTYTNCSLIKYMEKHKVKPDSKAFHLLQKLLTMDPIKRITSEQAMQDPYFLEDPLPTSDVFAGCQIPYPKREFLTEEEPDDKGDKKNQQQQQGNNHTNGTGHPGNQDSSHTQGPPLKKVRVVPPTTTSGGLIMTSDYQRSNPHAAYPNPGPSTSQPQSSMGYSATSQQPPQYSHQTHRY
Chain of Tyrosine-protein kinase Fyn (P06241 whole entry): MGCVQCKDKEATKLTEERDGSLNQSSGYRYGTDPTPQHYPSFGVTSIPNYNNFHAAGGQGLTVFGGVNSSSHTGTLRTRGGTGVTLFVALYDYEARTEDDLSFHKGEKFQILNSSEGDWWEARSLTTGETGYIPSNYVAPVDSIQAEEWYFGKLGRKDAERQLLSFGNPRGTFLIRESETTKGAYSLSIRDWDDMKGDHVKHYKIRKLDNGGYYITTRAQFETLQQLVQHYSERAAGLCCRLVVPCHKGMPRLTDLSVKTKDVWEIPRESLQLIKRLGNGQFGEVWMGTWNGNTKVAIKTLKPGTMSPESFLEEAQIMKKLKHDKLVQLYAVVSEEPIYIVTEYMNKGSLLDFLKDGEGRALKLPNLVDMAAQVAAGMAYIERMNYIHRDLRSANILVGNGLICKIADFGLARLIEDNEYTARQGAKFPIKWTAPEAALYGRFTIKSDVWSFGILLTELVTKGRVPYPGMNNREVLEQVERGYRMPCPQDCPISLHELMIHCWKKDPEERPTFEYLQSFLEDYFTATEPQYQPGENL
Chain of Serine/threonine-protein kinase 3 (Q13188 whole entry): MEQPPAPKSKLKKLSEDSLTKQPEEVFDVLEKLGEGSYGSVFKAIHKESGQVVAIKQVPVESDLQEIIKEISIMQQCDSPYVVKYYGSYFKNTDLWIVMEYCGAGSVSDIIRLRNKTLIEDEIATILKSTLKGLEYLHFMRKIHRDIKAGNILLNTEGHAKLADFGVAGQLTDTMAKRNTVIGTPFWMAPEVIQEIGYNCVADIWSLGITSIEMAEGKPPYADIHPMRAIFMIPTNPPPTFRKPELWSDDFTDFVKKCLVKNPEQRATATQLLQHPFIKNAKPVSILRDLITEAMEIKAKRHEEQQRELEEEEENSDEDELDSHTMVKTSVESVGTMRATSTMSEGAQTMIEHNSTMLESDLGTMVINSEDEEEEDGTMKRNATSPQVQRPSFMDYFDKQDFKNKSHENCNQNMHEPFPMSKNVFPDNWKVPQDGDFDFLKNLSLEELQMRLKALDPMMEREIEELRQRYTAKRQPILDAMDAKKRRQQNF
Chain of Homeodomain-interacting protein kinase 2 (Q9H2X6 whole entry): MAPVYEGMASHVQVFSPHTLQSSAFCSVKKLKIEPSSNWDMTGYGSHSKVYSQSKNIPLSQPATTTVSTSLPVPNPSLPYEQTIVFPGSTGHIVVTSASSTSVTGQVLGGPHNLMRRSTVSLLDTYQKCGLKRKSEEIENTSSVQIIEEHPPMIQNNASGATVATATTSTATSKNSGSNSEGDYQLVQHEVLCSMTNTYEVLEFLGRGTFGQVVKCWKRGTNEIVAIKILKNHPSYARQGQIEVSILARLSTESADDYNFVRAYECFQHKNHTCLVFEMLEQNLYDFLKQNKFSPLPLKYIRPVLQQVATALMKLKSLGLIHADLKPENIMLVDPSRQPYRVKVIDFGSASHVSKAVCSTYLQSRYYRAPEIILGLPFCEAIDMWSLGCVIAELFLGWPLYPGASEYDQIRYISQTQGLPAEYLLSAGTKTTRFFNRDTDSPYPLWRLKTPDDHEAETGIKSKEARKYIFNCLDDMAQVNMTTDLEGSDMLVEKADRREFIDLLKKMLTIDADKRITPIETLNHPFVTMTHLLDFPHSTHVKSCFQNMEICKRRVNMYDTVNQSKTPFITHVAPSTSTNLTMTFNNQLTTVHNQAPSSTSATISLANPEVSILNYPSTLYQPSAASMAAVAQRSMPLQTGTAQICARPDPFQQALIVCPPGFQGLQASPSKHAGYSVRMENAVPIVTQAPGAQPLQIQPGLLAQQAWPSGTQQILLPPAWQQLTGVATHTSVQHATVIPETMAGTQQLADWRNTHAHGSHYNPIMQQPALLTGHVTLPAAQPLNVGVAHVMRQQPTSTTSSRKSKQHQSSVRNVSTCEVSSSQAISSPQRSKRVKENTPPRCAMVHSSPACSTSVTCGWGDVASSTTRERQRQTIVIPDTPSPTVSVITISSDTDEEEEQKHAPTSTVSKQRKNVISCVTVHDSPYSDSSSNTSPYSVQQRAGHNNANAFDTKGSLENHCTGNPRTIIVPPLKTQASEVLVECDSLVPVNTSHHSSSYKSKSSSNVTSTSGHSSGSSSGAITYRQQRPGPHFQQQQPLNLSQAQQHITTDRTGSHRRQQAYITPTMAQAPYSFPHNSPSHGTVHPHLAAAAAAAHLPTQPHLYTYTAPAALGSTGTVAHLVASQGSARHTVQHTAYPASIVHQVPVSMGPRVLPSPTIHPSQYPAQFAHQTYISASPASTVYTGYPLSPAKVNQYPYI

| Compound | Ki [1] | Ki [2] | Ki [3] | Ki [4] | Ki [5] | Ki [6] | Ki (Activin receptor type-1) | Ki [7] | Ki [8] | Ki [9] | Ki [10] | Ki [11] | Ki [12] | Ki [13] | Ki (Aurora kinase B) | Ki [14] | Ki [15] | Ki [16] | Ki [17] | Ki [18] | also measured |
| --- | --- | --- | --- | --- | --- | --- | --- | --- | --- | --- | --- | --- | --- | --- | --- | --- | --- | --- | --- | --- | --- |
| CS(=O)(=O)N(Cc1ccc2[nH]c(=O)c3cccn3c2c1)C1CC1 | > 2.51 µM (inactive) | > 1.58 µM (inactive) | > 3.16 µM (inactive) | > 1.58 µM (inactive) | 0.316 µM (active) | > 2 µM (inactive) | > 3.98 µM (inactive) | > 5.01 µM (inactive) | > 3.98 µM (inactive) | 0.0631 µM (active) | > 1.58 µM (inactive) | > 2.51 µM (inactive) | > 6.31 µM (inactive) | > 1.58 µM (inactive) | > 1.26 µM (inactive) | 1.58 µM (active) | > 3.16 µM (inactive) | > 1.58 µM (inactive) | > 3.98 µM (inactive) | > 3.98 µM (inactive) | Ki [19]: > 2 µM (inactive); Ki [20]: > 1.58 µM (inactive); Ki [21]: > 3.98 µM (inactive); Ki [22]: > 3.98 µM (inactive); Ki [23]: > 3.16 µM (inactive); Ki [24]: > 3.98 µM (inactive); Ki [25]: > 7.94 µM (inactive) |
| CS(=O)(=O)Nc1ccc(Nc2ccc3[nH]nc(N)c3c2)cc1 | – | – | > 6.31 µM (inactive) | – | – | 3.16 µM (active) | – | – | – | – | – | – | 2 µM (active) | – | – | – | > 6.31 µM (inactive) | – | 2.51 µM (active) | – | Ki [26]: > 6.31 µM (inactive) |
| O=C(Nc1n[nH]c2ccc(-c3cn(Cc4ccccc4)nn3)cc12)c1cc(F)ccc1F | 1.58 µM (active) | > 2.51 µM (inactive) | > 6.31 µM (inactive) | 2 µM (active) | > 1.58 µM (inactive) | > 3.98 µM (inactive) | 3.98 µM (active) | 1.58 µM (active) | 1 µM (active) | 0.1 µM (active) | > 3.16 µM (inactive) | > 2 µM (inactive) | > 3.16 µM (inactive) | > 2.51 µM (inactive) | > 3.98 µM (inactive) | 0.794 µM (active) | > 6.31 µM (inactive) | > 3.16 µM (inactive) | > 3.98 µM (inactive) | 0.2 µM (active) | Ki [26]: > 6.31 µM (inactive); Ki [19]: > 3.98 µM (inactive); Ki [20]: 0.398 µM (active); Ki [21]: 2.51 µM (active); Ki [22]: > 3.98 µM (inactive); Ki [23]: 1.26 µM (active); Ki [24]: > 3.98 µM (inactive); Ki [25]: > 3.16 µM (inactive) |
